{
  "source": "patent EP1144423B1",
  "about": "“BIS-TERPYRIDINE-PLATINUM(II) COMPLEXES” (ISIS INNOVATION LIMITED, priority 1999, dated 2000)",
  "key": {"[1]": {"tested_on": "CH1 cell line", "experiment": "in vitro cytotoxicity, sulforhodamine B growth inhibition assay", "type": "cell-based, human", "details": "96 h exposure", "method": "(§1) The IC50 values of the bis-2,2':6',2\"-terpyridine Pt(II) complexes (1, Z=trans-CH=CH-, Y=H), (1, Z=trans-CH=CH-, Y=Cl) and (1, Z=trans-CH=CH-, Y=4-Br.C6H4), were reported in PCT/GB97/00218 (WO97/27202) and referred to as A14, I14 and Q14 respectively. They were evaluated for in vitro cytotoxicity against five human ovarian carcinoma cell lines which included two selected for resistance to cisplatin (Ch1cis^R and A2780cis^R) and one for resistance to doxorubicin (Ch1dox^R). The compounds were exposed to cells for 96 h and growth inhibition assessed using the sulforhodamine B protein staining assay."}, "[2]": {"tested_on": "cell line SKOV3", "experiment": "in vitro cytotoxicity, sulforhodamine B growth inhibition assay", "type": "cell-based, human", "method": "as §1"}, "[3]": {"tested_on": "cisplatin resistant CH1 cell line (CH1cis^R)", "experiment": "in vitro cytotoxicity, sulforhodamine B growth inhibition assay", "type": "cell-based, human", "details": "96 h exposure", "method": "as §1"}, "[4]": {"tested_on": "DNA", "details": "intercalation into DNA, literature value [4]; cited from earlier work"}, "[5]": {"tested_on": "calf-thymus (ct)-DNA", "details": "literature values; cited from earlier work"}, "[6]": {"tested_on": "doxirubicin resistant CH1 cell line", "type": "cell-based, human", "details": "doxirubicin resistant CH1 cell line versus CH1", "method": "as §1"}, "[7]": {"experiment": "maximum tolerated dose, single intraperitoneal injection", "type": "in vivo", "details": "for loss of body weight: 25, 50 and 100 mg/kg i.p., body weight 2 weeks post-dosing; for deaths: single intraperitoneal injection at 25, 50 and 100 mg/kg; for signs of induced toxicity: single intraperitoneal injection", "method": "The maximum tolerated dose was determined for A15(4NO3) and I15(4NO3).\nDrugs were administered as a single intraperitoneal injection at 25, 50 and 100 mg/kg. Animals were observed daily for signs of induced toxicity and body weight determined 2 weeks post-dosing."}, "[8]": {"tested_on": "A2780 cisplatin resistant cell line (A2780cis^R)", "experiment": "in vitro cytotoxicity, sulforhodamine B growth inhibition assay", "type": "cell-based, human", "method": "as §1"}, "[9]": {"tested_on": "cell line A2780", "experiment": "in vitro cytotoxicity, sulforhodamine B growth inhibition assay", "type": "cell-based, human", "details": "96 h exposure", "method": "as §1"}, "[10]": {"tested_on": "poly[d(A-T)2]", "details": "second binding mode, circular dichroism; cited from earlier work"}, "[11]": {"tested_on": "cisplatin resistant CH1 cell line (CH1cis^R)", "details": "96 h exposure, value reported in WO97/27202; cited from earlier work"}, "[12]": {"tested_on": "cell line SKOV3", "details": "reported in WO 97/27202; cited from earlier work"}},
  "note": "Where two headings read alike, the source gives them in different places.",
  "data": [
    {"molecule": "Clc1cc2[n+]3c(c1)-c1cccc[n+]1[Pt-2]3([n+]1ccc(-c3cc[n+]([Pt-2]45[n+]6ccccc6-c6cc(Cl)cc([n+]64)-c4cccc[n+]45)cc3)cc1)[n+]1ccccc1-2.O=[N+]([O-])[O-].O=[N+]([O-])[O-].O=[N+]([O-])[O-].O=[N+]([O-])[O-]", "note": "[I18, 4,4'-Dipyridine bis[(4'-chloro-2,2':6',2\"-terpyridine)platinum(II)] tetranitrate]", "values": [
      {"measurement": "IC50", "setting": "[1]", "result": "< 1", "unit": "µM"},
      {"measurement": "antitumour activity compared with cisplatin", "setting": "[2]", "result": "more effective than cisplatin"},
      {"measurement": "IC50", "setting": "[3]", "result": "< 1", "unit": "µM"}
    ]},
    {"molecule": "F[B-](F)(F)F.[OH][Pt-2]12[n+]3ccccc3-c3cccc([n+]31)-c1cccc[n+]12", "note": "[hydroxy-platinum complex]", "values": [
      {"measurement": "binding constant", "setting": "[4]", "result": "approximately 7 x 10^4 M^-1"}
    ]},
    {"molecule": "hydroxyethanethiolate-2,2':6',2\"-terpyridine-platinum(II) [hydroxy-ethanethiolate complex]", "values": [
      {"measurement": "binding association constants with ct-DNA", "setting": "[5]", "result": 83000, "unit": "M⁻¹"}
    ]},
    {"molecule": "O=[N+]([O-])[O-].O=[N+]([O-])[O-].O=[N+]([O-])[O-].O=[N+]([O-])[O-].O=[N+]([O-])[O-].O=[N+]([O-])[O-].[NH3+][Pt-2]([NH3+])([n+]1ccc(-c2cc[n+]([Pt-2]34[n+]5ccccc5-c5cc(Cl)cc([n+]53)-c3cccc[n+]34)cc2)cc1)[n+]1ccc(-c2cc[n+]([Pt-2]34[n+]5ccccc5-c5cc(Cl)cc([n+]53)-c3cccc[n+]34)cc2)cc1", "note": "[I20, trans-Diamminebis(4,4'-dipyridyl)platinum(II) bis[(4'-chloro-2,2':6',2\"-terpyridine)platinum(II)] hexanitrate]", "values": [
      {"measurement": "IC50", "setting": "[1]", "result": "< 1", "unit": "µM"},
      {"measurement": "IC50", "setting": "[3]", "result": "< 1", "unit": "µM"},
      {"measurement": "resistance factors (RF)", "setting": "[6]", "result": 0.8}
    ]},
    {"molecule": "[Cl-].[Cl-].[Pt+2].c1ccc(-c2cccc(-c3ccccn3)n2)nc1", "note": "[chloroplatinum complex]", "values": [
      {"measurement": "binding association constants with ct-DNA", "setting": "[5]", "result": "essentially the same binding constant"}
    ]},
    {"molecule": "C(C#Cc1cc[n+]([Pt-2]23[n+]4ccccc4-c4cccc([n+]42)-c2cccc[n+]23)cc1)#Cc1cc[n+]([Pt-2]23[n+]4ccccc4-c4cccc([n+]42)-c2cccc[n+]23)cc1.O=[N+]([O-])[O-].O=[N+]([O-])[O-].O=[N+]([O-])[O-].O=[N+]([O-])[O-]", "note": "[A15, 1,4-Bis(4-pyridyl)butadiyne bis[(2,2':6',2\"-terpyridine)platinum(II)] tetranitrate]", "values": [
      {"measurement": "IC50", "setting": "[1]", "result": "< 1", "unit": "µM"},
      {"measurement": "IC50", "setting": "[3]", "result": "< 1", "unit": "µM"},
      {"measurement": "resistance factors (RF)", "setting": "[6]", "result": 0.6},
      {"measurement": "loss of body weight", "setting": "[7]", "result": "no loss of body weight"},
      {"measurement": "deaths", "setting": "[7]", "result": "no deaths"},
      {"measurement": "signs of induced toxicity", "setting": "[7]; 100 mg/kg", "result": "no sign of toxicity or body weight loss"}
    ]},
    {"molecule": "Clc1cc2[n+]3c(c1)-c1cccc[n+]1[Pt-2]3([n+]1ccc(C#CC#Cc3cc[n+]([Pt-2]45[n+]6ccccc6-c6cc(Cl)cc([n+]64)-c4cccc[n+]45)cc3)cc1)[n+]1ccccc1-2.O=[N+]([O-])[O-].O=[N+]([O-])[O-].O=[N+]([O-])[O-].O=[N+]([O-])[O-]", "note": "[I15, 1,4-Bis(4-pyridyl)butadiyne bis[(4'-chloro-2,2':6'2\"-terpyridine)platinum(II)] tetranitrate]", "values": [
      {"measurement": "times more effective than cisplatin", "setting": "[8]; A2780cis^R cell line", "result": 13, "unit": "times"},
      {"measurement": "resistance factors (RF)", "setting": "[8]; A2780cis^R versus A2780", "result": 1.1},
      {"measurement": "IC50", "setting": "[9]", "result": "< 1", "unit": "µM"},
      {"measurement": "antitumour activity compared with cisplatin", "setting": "[2]", "result": "more effective than cisplatin"},
      {"measurement": "loss of body weight", "setting": "[7]", "result": "no loss of body weight"},
      {"measurement": "deaths", "setting": "[7]", "result": "no deaths"},
      {"measurement": "signs of induced toxicity", "setting": "[7]; 50 mg/kg", "result": "not at 50 mg/kg"},
      {"measurement": "signs of induced toxicity", "setting": "[7]; 100 mg/kg", "result": "some indication of toxicity (mild ataxia/twitching)"}
    ]},
    {"molecule": "Cc1cc[n+]([Pt-2]23[n+]4ccccc4-c4cccc([n+]42)-c2cccc[n+]23)cc1.F[B-](F)(F)F.F[B-](F)(F)F", "note": "[4-Picoline-2,2':6',2\"-terpyridine-platinum(II) bis-tetrafluoroborate]", "values": [
      {"measurement": "equilibrium binding constant", "setting": "[10]", "result": "about 1 x10^6 M^-1"}
    ]},
    {"molecule": "4,4'-vinylenedipyridine bis[2,2':6',2\"-terpyridine platinum (II)] [A14 (4BF4)]", "values": [
      {"measurement": "IC50", "setting": "[11]", "result": "< 1", "unit": "µM"},
      {"measurement": "antitumour activity compared with cisplatin", "setting": "[12]", "result": "more effective than cisplatin"}
    ]}
  ]
}
